{"source": "paper PMC4999848", "about": "(Toxins, 2016)", "key": {"colonic explant": {"tested_on": "colonic explant", "assay": "Deacetylation of 3/15ADON by human colonic explants", "assay_type": "in vitro ADME", "conditions": "for Disappearance of 3/15ADON, specific activity: colonic explant, 37 °C, substrate 100 μM; for % of deacetylation: colonic explants, 6 h incubation, 100 μM; for Contribution to total deacetylation activity: Colon: percentage of sum of specific activities (Figure 8)", "source_text": "Human tissue samples were obtained from patients undergoing surgery at the Hospital Nord of Marseille, unit of general and gastrointestinal surgery according to a collaborative “clinical transfer” project. The procedures were approved by the French ethic committee (CODECOH n° DC-2011-1319). Patients were from both genders (six men, three women), 31–74 years of age, all of European origin. All patients agree to use their tissues for research purposes. Samples were taken from macroscopically unaffected area as identified by the surgeon for intestinal samples or the pathologist for liver resections. Diagnoses leading to surgery were carcinoma for intestine or liver. After resection, the specimens were placed in ice-cold non-sterile Krebs solution implemented and transferred to the school of medicine on the same campus within 5 min, composition of the Krebs solution being previously described. The tissues were rinsed several times and maintained in oxygenated Krebs during 1 h for recovery before final dissection. Intestinal and hepatic resections were extensively washed and maintained in ice-cold culture media containing 1% streptomycin/penicillin solution and 50 μg/mL gentamycin. Tissues were cleaned from vascular vessels and conjunctive tissue using forceps under binocular microscope. In case of intestinal resection, muscularis and plexus were removed and only epithelial layer was kept. Intestinal and hepatic explants (wet weight of 20–30 mg) were then isolated from the cleaned resections using surgical punch (diameter of […]). […] Finally, the explants were washed 3 times with PBS^++ and transferred into 6-well plates before being used for deacetylation assay.\n(§1) Stock solutions of DON, 3ADON and 15ADON at 2 mg/mL were prepared in absolute ethanol and stored at −20 °C. For deacetylation assay, 3- or 15ADON were incubated with cells, explants, bacteria or digestive enzymes after being diluted in PBS^++ at a final concentration of 100 μM. PBS^++ solution containing only ethanol (at 1.5% final concentration) or DON (at 100 μM) were used in parallel as negative and positive control, respectively. For cells and explants, deacetylation assay take place in 6-well plates, wells being filled with 2 mL of PBS^++ containing either ethanol, DON, 3- or 15ADON. For fecal bacteria and digestive enzyme assay, deacetylation assay was conducted in 2 mL Eppendorf tubes filled with 1.5 mL of PBS^++ containing either ethanol, DON, 3- or 15ADON. In vitro intestinal digestion by luminal enzymes was performed using porcine enzymes from Sigma-Aldrich and physiological conditions. Briefly, 3- or 15ADON were incubated with pepsin (at 1.6 mg/mL corresponding to 900 U/mL), trypsin (at 0.35 mg/mL corresponding to 6000 U/mL), pancreatic lipase (at 0.75 mg/mL corresponding to 18 U/mL) or pancreatin (at 1.23 mg/mL, lipase activity >10 U/mL, protease activity >100 U/mL, amylase activity >100 U/mL). Except for pepsin for which the digestion was conducted in HCl solution at 10 mM (pH 2.3), in vitro digestion was performed in PBS^++ (pH 7.4). Finally, deacetylation assay was also performed with commercial pooled S9 fractions from human liver, small intestine and kidneys as well as with pure recombinant human CES1 and CES2. S9 fractions and CES1/2 were used at 0.1 mg/mL and 5 μg/mL (corresponding to CES activity >20 U/mL), respectively. In all cases, aliquots of the reaction solution were collected immediately (i.e., “time zero” sample) or after the indicated time period at 37 °C and analyzed by HPLC. […] In all cases, the experiments were conducted in triplicate (n = 3)."}, "HepG2 cells": {"tested_on": "HepG2 cells", "assay": "Deacetylation of 3/15ADON by HepG2 cells", "assay_type": "in vitro ADME, human", "conditions": "for Disappearance of 3/15ADON, specific activity: HepG2, 37 °C, substrate 100 μM; for % deacetylated: HepG2, 6 h incubation, 100 μM", "procedure": "A498, Caco-2, T84 and HepG2 cells were used as models of human renal, small intestinal, colonic and hepatic cells, respectively. Cells were routinely grown in culture media (Dulbecco’s Modified Eagle Medium (DMEM), DMEM:F12 mixture and Minimum Essential Media (MEM) for A498/Caco-2, T84 and HepG2 cells, respectively) supplemented with 10% fetal calf serum and 1% antibiotics (streptomycin–penicillin solution). Cells were grown in 25 cm^2 ventilated flask maintained at 37 °C in a 5% CO2 incubator. Cells were routinely passed using trypsin-EDTA solution. For deacetylation experiments, cells were seeded onto 6-well plates at an initial density of 200,000 cells/cm^2. HepG2 and A498 were used 3–4 days post-seeding when confluence was reached. Caco-2 and T84 cells were let to differentiate for 10–14 days post-seeding before being used. In all cases, cells were washed three times with sterile phosphate buffer saline PBS^++ (PBS containing 100 mg/L of calcium and magnesium salts) before deacetylation assay.\nStock solutions of DON, 3ADON and 15ADON at 2 mg/mL were prepared in absolute ethanol and stored at −20 °C. For deacetylation assay, 3- or 15ADON were incubated with cells, explants, bacteria or digestive enzymes after being diluted in PBS^++ at a final concentration of 100 μM. PBS^++ solution containing only ethanol (at 1.5% final concentration) or DON (at 100 μM) were used in parallel as negative and positive control, respectively. For cells and explants, deacetylation assay take place in 6-well plates, wells being filled with 2 mL of PBS^++ containing either ethanol, DON, 3- or 15ADON. For fecal bacteria and digestive enzyme assay, deacetylation assay was conducted in 2 mL Eppendorf tubes filled with 1.5 mL of PBS^++ containing either ethanol, DON, 3- or 15ADON. In vitro intestinal digestion by luminal enzymes was performed using porcine enzymes from Sigma-Aldrich and physiological conditions. Briefly, 3- or 15ADON were incubated with pepsin (at 1.6 mg/mL corresponding to 900 U/mL), trypsin (at 0.35 mg/mL corresponding to 6000 U/mL), pancreatic lipase (at 0.75 mg/mL corresponding to 18 U/mL) or pancreatin (at 1.23 mg/mL, lipase activity >10 U/mL, protease activity >100 U/mL, amylase activity >100 U/mL). Except for pepsin for which the digestion was conducted in HCl solution at 10 mM (pH 2.3), in vitro digestion was performed in PBS^++ (pH 7.4). Finally, deacetylation assay was also performed with commercial pooled S9 fractions from human liver, small intestine and kidneys as well as with pure recombinant human CES1 and CES2. […] In all cases, aliquots of the reaction solution were collected immediately (i.e., “time zero” sample) or after the indicated time period at 37 °C and analyzed by HPLC. […]"}, "[1]": {"assay": "Deacetylation of 3/15ADON by small intestine S9 fraction", "assay_type": "in vitro ADME, human", "procedure": "as §1\nDeacetylation was monitoring both in term of disappearance of 3- or 15ADON and formation of DON. Measurement of DON, 3ADON and 15ADON concentrations was performed by reversed-phase HPLC using Waters Alliance System equipped with a Waters 2690 XE separation module and a Waters 996 photodiode array detector (Waters, Saint Quentin Falavier, France). The separation was achieved by mean of a LiChroCart column (125 mm × 4 mm) packed with 5 μm RP-18 Purospher gel (Merck, Darmstadt, Germany) and equipped with a LiChroCart precolumn (4 mm × 4 mm) packed with the same material (Merck). The precolumn and column were placed in room temperature. The elution procedure was carried out at 0.7 mL·min^−1 by a methanol–water solvent, using the following conditions: 40% methanol during 2 min followed by an increase in methanol to 50% at 2.1 min. The detection wavelength was set at 237 nm allowing the best signal/baseline ratio for simultaneous detection of the three DON forms in the incubation mediums. Under these conditions, DON and 3/15ADON were clearly separated, the retention time being around 2.7 min and 5.7 min, for DON and 3/15ADON, respectively (Figure 9). Quantification was based on calibration with the corresponding standard using Millinium Software (Waters, Saint Quentin Falavier, France)."}, "trypsin": {"molecular_target": "T1, trypsin (Sus scrofa, UniProt P00761)", "T1 construct": "purchased Sigma-Aldrich", "T1 sequence (P00761 9-231)": "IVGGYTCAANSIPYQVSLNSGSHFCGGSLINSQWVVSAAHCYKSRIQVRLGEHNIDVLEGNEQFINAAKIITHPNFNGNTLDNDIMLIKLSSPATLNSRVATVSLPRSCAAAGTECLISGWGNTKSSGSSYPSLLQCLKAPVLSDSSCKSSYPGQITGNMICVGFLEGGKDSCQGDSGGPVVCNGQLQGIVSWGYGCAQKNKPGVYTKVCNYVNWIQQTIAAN", "assay": "Deacetylation of 3/15ADON by trypsin", "assay_type": "in vitro ADME, porcine", "conditions": "trypsin 0.35 mg/mL, PBS pH 7.4, 37 °C, substrate 100 μM", "procedure": "Stock solutions of DON, 3ADON and 15ADON at 2 mg/mL were prepared in absolute ethanol and stored at −20 °C. For deacetylation assay, 3- or 15ADON were incubated with cells, explants, bacteria or digestive enzymes after being diluted in PBS^++ at a final concentration of 100 μM. PBS^++ solution containing only ethanol (at 1.5% final concentration) or DON (at 100 μM) were used in parallel as negative and positive control, respectively. For cells and explants, deacetylation assay take place in 6-well plates, wells being filled with 2 mL of PBS^++ containing either ethanol, DON, 3- or 15ADON. For fecal bacteria and digestive enzyme assay, deacetylation assay was conducted in 2 mL Eppendorf tubes filled with 1.5 mL of PBS^++ containing either ethanol, DON, 3- or 15ADON. In vitro intestinal digestion by luminal enzymes was performed using porcine enzymes from Sigma-Aldrich and physiological conditions. […] In all cases, aliquots of the reaction solution were collected immediately (i.e., “time zero” sample) or after the indicated time period at 37 °C and analyzed by HPLC. […]\nDeacetylation was monitoring both in term of disappearance of 3- or 15ADON and formation of DON. […] Quantification was based on calibration with the corresponding standard using Millinium Software (Waters, Saint Quentin Falavier, France)."}, "[2]": {"conditions": "S9 Intestine + Benzil 100 μM (Table 1)"}, "[3]": {"conditions": "S9 small intestine 0.1 mg/mL, 37 °C, substrate 100 μM (Table 3)"}}, "note": "Where “and” joins values, the source holds several entries; their conditions need not be identical. Equal entries are not always repeated.", "data": [{"smiles": "CC(=O)O[C@@H]1C[C@]2(C)[C@@]3(CO)[C@H](O)C(=O)C(C)=C[C@H]3O[C@H]1[C@@]21CO1", "note": "[3ADON, 3-acetyldeoxynivalenol]", "values": [{"measurement": "Disappearance of 3/15ADON, specific activity", "setting": "colonic explant", "result": "22 ± 13", "unit": "pmol/min/mg"}, {"measurement": "% of deacetylation", "setting": "colonic explant", "result": "4.2% ± 3.1%"}, {"measurement": "Contribution to total deacetylation activity: Colon", "setting": "colonic explant", "result": 1.7, "unit": "%"}, {"measurement": "Disappearance of 3/15ADON, specific activity", "setting": "HepG2 cells", "result": "902 pmol/min/mg and 902 ± 78 pmol/min/mg"}, {"measurement": "% deacetylated", "setting": "HepG2 cells", "result": "52.1% ± 4.5%"}, {"measurement": "Disappearance of 3/15ADON, specific activity", "setting": "[1]; [2]", "result": "875 ± 83", "unit": "pmol/min/mg"}, {"measurement": "Disappearance of 3/15ADON, specific activity", "setting": "[1]; S9 Intestine, without benzil (Table 1)", "result": "1166 ± 110", "unit": "pmol/min/mg"}, {"measurement": "Disappearance of 3/15ADON, specific activity", "setting": "[1]; [3]", "result": "1250 pmol/min/mg and 1250 ± 79 pmol/min/mg"}, {"measurement": "Disappearance of 3/15ADON, specific activity", "setting": "trypsin", "result": "57 ± 19", "unit": "pmol/min/mg"}]}, {"smiles": "CC(=O)OC[C@]12[C@H](O)C(=O)C(C)=C[C@H]1O[C@@H]1[C@H](O)C[C@@]2(C)[C@]12CO2", "note": "[15ADON, 15-acetyldeoxynivalenol]", "values": [{"measurement": "Disappearance of 3/15ADON, specific activity", "setting": "colonic explant", "result": "4.5 pmol/min/mg and 4.5 ± 5.6 pmol/min/mg"}, {"measurement": "% of deacetylation", "setting": "colonic explant", "result": "0.2% ± 1.2%"}, {"measurement": "Contribution to total deacetylation activity: Colon", "setting": "colonic explant", "result": 0.7, "unit": "%"}, {"measurement": "Disappearance of 3/15ADON, specific activity", "setting": "HepG2 cells", "result": "295 pmol/min/mg and 295 ± 41 pmol/min/mg"}, {"measurement": "% deacetylated", "setting": "HepG2 cells", "result": "16.8% ± 2.4%"}, {"measurement": "Disappearance of 3/15ADON, specific activity", "setting": "[1]; [2]", "result": "171 ± 79", "unit": "pmol/min/mg"}, {"measurement": "Disappearance of 3/15ADON, specific activity", "setting": "[1]; [3]", "result": "166 pmol/min/mg and 166 ± 20 pmol/min/mg"}, {"measurement": "Disappearance of 3/15ADON, specific activity", "setting": "trypsin", "result": "94 ± 62", "unit": "pmol/min/mg"}]}]}
